The text below walks through data of patent US20260097047A1, “Small molecule inhibitors of the ribosome biogenesis factor NVL2” (Board of Regents, The University of Texas System, priority 2023, published 2026).

Where only a bound is given, the exact number is not on record here.

One experiment relates to HCT116 cells. Description: Cell viability assay (CellTiter-Glo, 72 hours) in HCT116 human colorectal cancer cells. Type of experiment: cell-based. The settings on record: Homo sapiens, HCT-116; Table 6; HCT116, 72 hours; read-out: Activity. The procedure: Cell culture: The HCT116 cell line was obtained from ATCC and cultured in Dulbecco's Modified Eagle's Medium (DMEM)-high glucose (Sigma Aldrich #D5796) supplemented with 10% fetal bovine serum (FBS) (Sigma-Aldrich #F2442) and 2 mM L-Glutamine (Sigma Aldrich #G7513). Cells were cultured at 37° C. in 5% CO2. The identity of all cell lines was confirmed by short tandem repeat (STR) analysis and confirmed to be mycoplasma-free using a PCR based assay (Genatlantis).
Cell viability assay: In 96-well assay plates (Corning #2903), 2,000 cells were plated per well in 100 μL of medium and allowed to adhere overnight. The next day, compounds suspended in DMSO were dispensed to the assayed wells using a D300e Digital Dispenser (Tecan). All wells were normalized to 0.5% DMSO. 72 hours after incubation at 37° C. in 5% CO2, cell viability was assayed using an ATP-based luminescent viability assay, CellTiter-Glo (Promega #G8462). Substrate was mixed 1:1 with phosphate-buffered saline (PBS) supplemented with 1% Triton X-100, and 40 μL of this mixture was added to the assay wells. Plates were shaken on a microplate shaker for 10 minutes at room temperature. Luminescence (CellTiter-Glo) was recorded using a Synergy 2 microplate reader (BioTek). In Prism 9 software (GraphPad), ten-point dose response curves were plotted with baseline-correction to the vehicle control well, and IC50 values were calculated by curve fitting using asymmetric (five parameter), least squares fit.
For `CC#CCN1C(=O)c2ccccc2Sc2cc(NC3CCCOC3)ccc21` (stereo not drawn) [10-(But-2-yn-1-yl)-7-((tetrahydro-2H-pyran-3-yl)amino)dibenzo[b,f][1,4]thiazepin-11 (10H)-one], the IC50 was below 500 nM.

The same experiment, now with this note: Table 2; HCT116, 72 hours; read-out: Activity.
Turning to `CC#CCN1C(=O)c2ccccc2Sc2cc(NC(=S)N3CCC3)ccc21` [Table 2: —CH2CCMe; azetidin-1-yl; CH; CH], the IC50 was below 500 nM.

The experiment is the same for the next values; noted with them: Table 5; HCT116, 72 hours; read-out: Activity.
`Cc1ccc(F)c(Nc2ccc3c(c2)Sc2ccccc2C(=O)N3CC#CCl)n1`: the IC50 was below 500 nM.

For the molecule `CC=CCN1C(=O)c2ccccc2Sc2cc(Nc3ncccc3C)ccc21`, the IC50 is below 500 nM.

As for `Cc1cnc(Nc2cnc3c(c2)Sc2ccccc2C(=O)N3CC#CCl)c(C)c1`, the IC50 was below 500 nM.

On to `CC#CCN1C(=O)c2ccccc2Sc2cc(Nc3cccnn3)cnc21`, for which the IC50 is below 500 nM.

The experiment is the same for the next values; noted with them: Table 6; HCT116, 72 hours; read-out: Activity.
With `CC#CCN1C(=O)c2ccccc2Cc2cc(NC3CC4(CC(O)C4)C3)ccc21` (stereo not drawn), the IC50 is below 500 nM.

`C#CCN1C(=O)c2ccccc2Sc2cc(NC3CC(O)C3)cnc21` (stereo not drawn) [Table 6: —CH2CCH; 3-HOcBu; CH/N; S]: the IC50 was below 500 nM.

Turning to `CC#CCN1C(=O)c2ccccc2Cc2cc(NC3CC(CO)C3)ccc21` (stereo not drawn), the IC50 was below 500 nM.

The same experiment, now with this note: Table 7; cell viability assay, CellTiter-Glo, 72 hours; scaffold drawing 42 with R^2, R^3, X/Y, Z; read-out: Activity.
Turning to `COCCN1C(=O)c2ccccc2Sc2cc(NC(=O)c3ccc4ncoc4c3)ccc21`, the IC50 lay within 1000 to 5000 nM.

For the molecule `COCCN1C(=O)c2ccccc2Sc2cc(NC(=O)c3ccc(F)c(OC)c3)ccc21` [—(CH2)2OMe; 3-MeO,4-FPh; CH/CH; S], the IC50 was 500 to 1000 nM.

Still in this experiment, the particulars now being: Table 8; analogs of scaffold drawing 43 defined by R^2, R^3, X/Y, W; read-out: Activity (IC50 class, cell viability assay).
Consider `CC#CCN1C(=O)c2ccc(F)cc2Sc2cc(NC(=O)[C@@H]3C[C@H]3CO)cnc21` (relative stereo) [—CH2CCMe; trans-2-HOCH2-cPr; CF/CH; N], for which the IC50 is below 500 nM.

On to `O=C(Nc1ccc2c(c1)Sc1ccc(F)cc1C(=O)N2CC#CC1CC1)C1CC2(COC2)C1`, for which the IC50 was below 500 nM.

In the case of `CC#CCN1C(=O)c2ccccc2Sc2cc(NC(=O)C3CCNC3=O)ccc21` (stereo not drawn), the IC50 was 500 to 1000 nM.

As to `CC#CCN1C(=O)c2ccc(F)cc2Sc2cc(NC(=O)C3CC4(CC(=NOC)C4)C3)ccc21` (stereo not drawn), the IC50 is below 500 nM.

On to `CC#CCN1C(=O)c2ccc(F)cc2Sc2cc(NC(=O)[C@H]3C[C@H](OC)C3)cnc21` [—CH2CCMe; trans-3-MeOcBu; CF/CH; N], for which the IC50 is below 500 nM.

As to `C#CCN1C(=O)c2ccc(Cl)cc2Sc2cc(NC(=O)[C@@H]3C[C@H]3CO)ccc21` (relative stereo) [—CH2CCH; trans-2-HOCH2-cPr; CCI/CH; CH], the IC50 was below 500 nM.

Take `COCCC(C)C(=O)Nc1cnc2c(c1)Sc1ccccc1C(=O)N2CC#CC1CC1` (stereo not drawn) [—CH2CC^cPr; MeO(CH2)2CHMe-; CH/CH; N]: the IC50 is below 500 nM.

On to `CC#CCN1C(=O)c2ccccc2Sc2cc(NC(=O)C3CCC3)cnc21` [—CH2CCMe; cBu; CH/CH; N], for which the IC50 is below 500 nM.

As for `CO[C@H]1C[C@H](C(=O)Nc2cnc3c(c2)Sc2ccccc2C(=O)N3CC#CC2CC2)C1` [—CH2CC^cPr; trans-3-MeOcBu; CH/CH; N], the IC50 was below 500 nM.

With `CC#CCN1C(=O)c2ccccc2Sc2cc(NC(=O)C3CCCC3)cnc21` [—CH2CCMe; cPent; CH/CH; N], the IC50 was below 500 nM.

For `COCC=CC(=O)Nc1cnc2c(c1)Sc1ccccc1C(=O)N2CC#CC1CC1` [—CH2CC^cPr; CH═CHCH2OMe; CH/CH; N], the IC50 was below 500 nM.

`CC#CCN1C(=O)c2ccccc2Sc2cc(NC(=O)C3CC4(CCC4)C3)ccc21`: the IC50 was below 500 nM.

Still in this experiment, the particulars now being: Table 9; HCT116, 72 hours; read-out: Activity.
For `CC1c2ccccc2C(=O)N(CC#CC2CC2)c2ccc(NC(=O)[C@@H]3C[C@H]3CO)cc21` (relative stereo), the IC50 is below 500 nM.

In the case of `COc1ccc(C(=O)Nc2ccc3c(c2)C(C)(O)c2ccccc2C(=O)N3CC#CCl)cc1` (stereo not drawn) [Table 9: —CH2CCCl; 4-MeOPh; CMeOH], the IC50 is below 500 nM.

In the case of `O=C(Nc1ccc2c(c1)Cc1ccccc1C(=O)N2CC#CC1CC1)C1CC2(COC2)C1`, the IC50 was below 500 nM.

Still in this experiment, the particulars now being: cell viability assay; Table 10 analogs of scaffold drawing 45 defined by R2, R3, X/Y, W; read-out: Activity.
In the case of `CC#CCN1C(=O)c2ccc(F)cc2Sc2cc(NC(=O)[C@H]3C[C@H](OC)C3)cnc21` [—CH2CCMe; trans-3-MeOcBu; CF/CH; N], the IC50 was below 500 nM.
